Laboratory results as given in patent publication US20090252754A1, “Vaccines containing the hiv tat protein as an adjuvant for the enhancement of cytotoxic t-cell responses” (priority 2003, published 2009).

Legend:
[1] = system: proteasomes purified from MIN-Tat and MIN-0; assay: In vitro degradation of CLG+5 epitope precursor by purified proteasomes (HPLC, IFN-γ ELISPOT of fractions); assay type: biochemical, human
Method: 500 μg of synthetic peptide were incubated with 127 μg of purified proteasomes in 300 μl of buffer (25 mM Tris HCL pH 7.4, 5 mM MgCl2, 500 μM EDTA pH 8.0, 1 mM DTT, 2 mM ATP) at 37° C. At the indicated time points, 60 μl of sample were collected and the reaction was stopped by adding 2 volumes of ethanol at 0° C.
Digestion mixtures were centrifuged at 5000 rpm for 5 minutes. 80 μl of supernatant were collected and peptide digests were separated by reverse-phase HPLC at the flow rate of 0.7 ml/min, as follows: linear gradient of 0-100% of solution B (acetonitrile 100% with 0.1% TFA) for 25 min, followed by linear gradient of 0-100% for solution A (water 100% with 0.1% TFA) for 5 min. The fractionation was simultaneously monitored at 210 and 280 nm. […]
Plates were incubated for 24 h at 37° C., 5% CO2 and then washed three times with PBS and three times with washing buffer (PBS 0.05% Tween 20) before 100 μl of biotinylated anti-IFN-γ MAb (1 μg/ml; Endogen, Woburn, Mass.) were added, and incubated at 37° C. for 60 min. […] Wells were washed, and individual IFN-γ producing cells were detected using ABC chromogen kit (Sigma, Saint Louise, Mo.). IFN-γ-secreting T cells were counted by direct visualisation. The number of specific IFN-γ-secreting T cells, expressed as spot-forming cells (SFC) per 10^6 cells, was calculated by subtracting the negative control value. […]

[2] = system: proteasome subunits (α2, PA28α, LMP2, LMP7, MECL1) in MIN and MON LCL's; assay: Western blot of proteasome subunits in lymphoblastoid cell lines expressing or treated with Tat; assay type: cell-based, human
Method: PG13 murine amphotropic packaging cell line^54 was cultured in DMEM supplemented with 10% FCS. Jurkat T cell transfectants (pRPneo-c and pRPneo-c-Tat)^22 were cultured in RPMI 1640 medium, supplemented with 10% FCS and 800 μg/ml neomycin (Sigma). Lymphoblastoid cell lines (LCL) were established by in vitro infection of normal B-lymphocytes from healthy donors with the B95.8 strain of EBV. LCL's were cultured in RPMI 1640 medium supplemented with 10% FCS.
MIN and MON LCL's were transduced with pBabePuro-Tat (MIN-Tat and MON-Tat) or pBabePuro (MIN-0 and MON-0) recombinant retroviruses by co-cultivation with packaging cell lines using transwell-clear tissue culture membranes. Subconfluent PG13 pBabePuro and PG13 pBabePuro-Tat cells, grown in the lower chamber, were co-cultivated in the presence of 8 μg/ml polybrene (Sigma) with MIN or MON LCL's (3×10^6/well) added to the upper chamber in 2.5 ml of RPMI 1640 medium supplemented with 10% FCS. After 48 hrs of co-cultivation, cells were harvested from the membranes and grown in culture medium containing puromycin (0.3 μg/ml) for 6 weeks. All cell lines were characterised by DNA-PCR, RT-PCR and Northern blot analysis.
Equal amounts of proteins were loaded on a 12% SDS-PAGE gel and electroblotted onto Protran nitrocellulose membranes (Schleicher & Schuell, Keene, Hampshire, USA). The blots were probed with antibodies specific for α2, LMP2, LMP7, MECL1, and PA28α subunits (Affinity, Exeter, UK) and developed by enhanced chemiluminescence (ECL, Amersham Pharmacia Biotech, Uppsala, SW).
To test the effect on proteasomes in cells after the up-take of exogenous Tat protein, MIN and MON LCL's were cultured in the absence or presence of increasing concentrations of biologically active Tat protein for 24 hours at 37° C. After treatment, the expression of the different subunits was analysed and compared to that of untreated cells. […] However, treatment with 0.1-1 μg/ml of Tat determined a down-regulation of LMP2 and an up-regulation of LMP7 and MECL1 as compared to untreated cells (FIG. 4).

[3] = system: proteasome subunits (α2, LMP2, LMP7, MECL1) in Jurkat cells; assay: Western blot of proteasome subunits in Jurkat cells expressing or treated with Tat, Tat mutants or Tat peptides; assay type: cell-based, human
Method: Jurkat T cells expressing Tat or mutated Tat (referred to as Tat22, wherein a Cys at position 22 is mutated) have previously been described (1). Cells were cultured in a medium supplemented with 800 μg/ml neomycin (Sigma, St. Louise, […].).
Cells were lysed with glass beads as previously described (4). Supernatants were ultracentrifuged for 1 h at 100,000 g and loaded into an affinity column containing a matrix derivatised with the MCP21 mAb specific for the α2 subunit of the proteasome (Affinity, Exeter, UK). Proteasomes were eluted with 25 mM Tris-HCl pH 7.5 containing 2 M NaCl, and 0.5 ml fractions were collected. Homogeneity of the eluted material was confirmed by analysis of an aliquot by SDS 12% PAGE and Coomassie blue staining of the gel. Fractions containing proteasomes were combined and dialysed against 25 mM Tris-HCl pH 7.5. Protein concentration was determined using the BCA method (Pierce Chemical, Rockford, Ill.).
Equal amounts of proteins, or equal amounts of purified proteasomes, were loaded on a 12% SDS-PAGE and electro-blotted onto Protran nitrocellulose membranes (Schleicher & Schuell, Keene, Hampshire, USA). Blots were probed with Abs specific for α2, LMP2 LMP7, MECL1, and PA28α subunits (Affinity), and developed by enhanced chemi-luminescence (ECL, Amersham Pharmacia Biotech, Uppsala, SW).

[4] = LCL's expressing endogenous Tat vs control cells
[5] = LCL's treated with 0.1-1 μg/ml of Tat, 24 hours, vs untreated
[6] = endogenous expression of Tat in Jurkat cells

With “Tat: HIV-1 Tat protein from HTLV type IIIB isolate, expressed in E. Coli or endogenously in cells; wild type SEQ ID NO 284” the “degradation of the CLG+5 peptide precursor” value ([1]; proteasomes from Tat-expressing cells (MIN-Tat) vs empty vector (MIN-0)) was “more efficiently”, the “generation of the immunogenic CLG peptide” value ([1]; proteasomes from Tat-expressing cells, 120 min digests, CLG-specific CTL ELISPOT) was “generate with more efficiency” and the “proteasome expression (α2-subunit)” value ([2]; LCL's expressing endogenous Tat (MIN-Tat, MON-Tat) vs control cells) was “No difference”. For the same substance, the “expression of LMP2” value [2, 4] was “marked down-regulation”, the “expression of LMP7” value [2, 4] was “up-regulation” and the “expression of MECL1” value [2, 4] was “up-regulation”. The “expression of PA28α regulator” value [2, 4] was “no differences”, the “expression of LMP2” value [2, 5] was “down-regulation” and the “expression of LMP7” value [2, 5] was “up-regulation”. The “expression of MECL1” value [2, 5] was “up-regulation”, the “expression of the α2-subunit” value ([2]; MIN and MON LCL's cultured with exogenous Tat protein, 24 hours, vs untreated) was “No difference” and the “LMP2 expression in total cell lysates” value ([3]; Jurkat cells treated for 24 h with 0.1 μg/ml) was “induced down-regulation”. The “expression of LMP2 subunit from purified proteasomes” value ([3]; Jurkat cells, exogenous native Tat, 24 h, 0.1-1 μg/ml) was “maximal down-modulation”, the “expression of LMP2” value [3, 6] was “down-regulation” and the “expression of LMP7” value [3, 6] was “up-regulation”. For the same substance, the “expression of MECL1” value [3, 6] was “up-regulation”.
